Measurements from article PMC6556873, “Rapid Covalent-Probe Discovery by Electrophile-Fragment Screening” (Journal of the American Chemical Society, 2019).
Where two headings read alike, the source gives them in different places.

What was measured:
[1] = in vitro; parameters: species or system HB2, HEK293; conditions: human, ccd841 cells
[2] = molecular target: T1, BSA (Bos taurus, UniProt P02769); parameters: Intact protein LC/MS covalent labelling, fragments in pools of five, 200 uM each, 4 °C; conditions: 24 h, 4 °C, pool of five; 200 µM; covalent
T1 construct: gene ALB
T1 sequence (P02769 whole entry, the tested form may be a part): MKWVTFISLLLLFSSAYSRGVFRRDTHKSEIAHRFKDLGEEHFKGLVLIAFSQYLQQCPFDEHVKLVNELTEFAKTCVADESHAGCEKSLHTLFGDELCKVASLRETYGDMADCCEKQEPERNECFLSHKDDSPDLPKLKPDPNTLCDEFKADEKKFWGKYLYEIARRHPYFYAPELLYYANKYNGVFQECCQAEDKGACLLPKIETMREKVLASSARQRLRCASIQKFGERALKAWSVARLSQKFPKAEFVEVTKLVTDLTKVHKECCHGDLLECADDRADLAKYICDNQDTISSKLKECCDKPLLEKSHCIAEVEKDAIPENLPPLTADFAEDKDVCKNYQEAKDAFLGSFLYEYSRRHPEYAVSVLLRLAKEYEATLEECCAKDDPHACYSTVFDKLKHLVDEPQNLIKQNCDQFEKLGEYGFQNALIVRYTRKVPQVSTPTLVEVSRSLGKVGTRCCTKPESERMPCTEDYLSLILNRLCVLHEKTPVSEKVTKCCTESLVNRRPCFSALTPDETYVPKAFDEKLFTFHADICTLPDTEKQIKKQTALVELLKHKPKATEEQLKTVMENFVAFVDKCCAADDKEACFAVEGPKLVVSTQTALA
Experimental: (§1) Incubations were performed at 200 μM for each compound and 2 μM of protein (10 μM for BSA) for 24 h at 4 °C with moderate shaking. Incubation buffers varied among proteins (PBS pH 7.4 for QSOX1 and BSA; 10 mM HEPES pH 7.5, 0.3 M NaCl, 0.5 mM TCEP for PCAF, UPS8, and NUDT7; […]; 10 mM Na2HPO4 pH 7.5 100 mM NaCl 5 mM β-mercaptoethanol for NV3CP; 20 mM Na phosphate pH 7.5 for NNMT; […]. The reaction was stopped by quenching with formic acid, 0.4% final concentration. Each protein was incubated with the electrophilic library in pools of five compounds per well. The pool’s composition maximized the difference in mass between fragments in the same well. Incubations were performed with each fragment at 200 μM, for 24 h at 4 °C, to allow the screening of proteins that are not stable for long time periods at higher temperatures. Following incubation, we used intact protein [compound left out] chromatography/mass spectrometry (LC/MS) to identify the fragments and quantify their labeling (Figure 3A). […] There was good agreement between the percent of labeling of NUDT7 by 100 random individual compounds and that obtained in pools of five (R^2=0.78; Figure S6 and Data set 2 in the Supporting Information).

[3] = molecular target: T2, NUDT7 (Homo sapiens, UniProt P0C024); parameters: Intact protein LC/MS covalent labelling, fragments in pools of five, 200 uM each, 4 °C; conditions: 24 h, 4 °C, pool of five; 200 µM; covalent
T2 construct: residues 14-235, E. coli, pNIC28-Bsa4, N-terminal His6 tag removed by TEV, construct 26672 Da
T2 sequence (P0C024 14-235): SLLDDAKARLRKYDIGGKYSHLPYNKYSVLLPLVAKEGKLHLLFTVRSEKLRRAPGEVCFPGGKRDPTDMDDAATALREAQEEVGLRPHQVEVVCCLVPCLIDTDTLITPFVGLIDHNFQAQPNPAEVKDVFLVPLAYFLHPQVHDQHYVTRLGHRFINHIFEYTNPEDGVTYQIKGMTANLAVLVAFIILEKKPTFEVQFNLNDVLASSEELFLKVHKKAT
Experimental: as §1

[4] = molecular target: T3, OTUB2 (OTUB2A) (Homo sapiens, UniProt Q96DC9); parameters: Intact protein LC/MS covalent labelling, fragments in pools of five, 200 uM each, 4 °C; conditions: 24 h, 4 °C, pool of five; 200 µM; covalent
T3 construct: full length residues 1-234, E. coli BL21(DE3)-R3, His tag removed by TEV, construct 27312 Da
T3 sequence (Q96DC9 1-234): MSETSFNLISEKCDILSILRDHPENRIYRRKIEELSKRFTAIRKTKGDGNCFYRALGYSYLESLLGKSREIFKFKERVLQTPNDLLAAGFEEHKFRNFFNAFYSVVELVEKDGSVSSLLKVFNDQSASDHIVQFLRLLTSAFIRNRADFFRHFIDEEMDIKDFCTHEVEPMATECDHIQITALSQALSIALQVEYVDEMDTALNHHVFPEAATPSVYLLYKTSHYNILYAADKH
Experimental: as §1

[5] = molecular target: T4, PCAF (Homo sapiens, UniProt Q92831); parameters: Intact protein LC/MS covalent labelling, fragments in pools of five, 200 uM each, 4 °C; conditions: 24 h, 4 °C, pool of five; 200 µM; covalent
T4 construct: gene KAT2B
T4 sequence (Q92831 whole entry, the tested form may be a part): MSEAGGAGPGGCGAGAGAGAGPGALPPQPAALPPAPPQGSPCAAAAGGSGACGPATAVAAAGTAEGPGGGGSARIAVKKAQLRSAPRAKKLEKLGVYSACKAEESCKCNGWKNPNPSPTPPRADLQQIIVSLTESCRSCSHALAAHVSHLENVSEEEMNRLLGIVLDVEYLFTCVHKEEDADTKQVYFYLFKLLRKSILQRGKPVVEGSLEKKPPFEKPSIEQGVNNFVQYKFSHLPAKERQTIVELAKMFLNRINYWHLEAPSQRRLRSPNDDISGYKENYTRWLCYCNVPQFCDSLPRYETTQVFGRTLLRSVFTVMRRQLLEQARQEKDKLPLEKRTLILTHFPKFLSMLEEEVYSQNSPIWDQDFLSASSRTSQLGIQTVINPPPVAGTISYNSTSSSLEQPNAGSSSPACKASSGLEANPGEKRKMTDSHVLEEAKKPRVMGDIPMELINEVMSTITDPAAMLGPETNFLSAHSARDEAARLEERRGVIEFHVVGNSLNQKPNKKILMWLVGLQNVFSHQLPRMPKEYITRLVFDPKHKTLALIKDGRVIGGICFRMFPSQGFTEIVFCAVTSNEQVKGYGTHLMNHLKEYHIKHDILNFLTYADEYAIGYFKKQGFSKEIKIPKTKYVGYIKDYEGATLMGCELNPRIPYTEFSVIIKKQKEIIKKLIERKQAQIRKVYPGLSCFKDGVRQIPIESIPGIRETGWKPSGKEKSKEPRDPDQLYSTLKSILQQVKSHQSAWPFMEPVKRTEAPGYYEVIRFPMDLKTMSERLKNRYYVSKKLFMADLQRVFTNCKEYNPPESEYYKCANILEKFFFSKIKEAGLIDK
Experimental: as §1

[6] = in vitro; parameters: species or system CCD841, HEK293; conditions: human, hb2 cells, read-out: HB-2 Cells Viability (%)
[7] = in vitro; parameters: species or system HB2, CCD841; conditions: human, hek293 cells

SMILES	BSA [2]	NUDT7 [3]	OTUB2 [4]	PCAF [5]	viability at 48 h, 10 µM [1]	viability at 48 h, 10 µM [6]	viability at 48 h, 10 µM [7]
CC(NC(=O)CCl)c1cccc2ccccc12 (centres unmarked) [PCM-0102275]	0	0.32	0.73	0	70.5%	61.6%	47.3%
O=C(CCl)NNC(=O)c1cccs1 [PCM-0102426]	0	0	0.6	0	88.7%	86%	82.8%
O=C(CCl)N1N=C(c2ccco2)CC1c1ccco1 (centres unmarked) [PCM-0102380]	0	0.54	0	0	63.4%	55.7%	40.4%
NC(=O)c1ccccc1NC(=O)CCl [PCM-0102758]	0	0	0	0	66.1%	69.6%	53.5%
O=C(CCl)N1CCCc2cc(S(=O)(=O)N3CCCC3)ccc21 [PCM-0102625]	0	0	0	0	12.2%	5.4%	2.5%
CC(NC(=O)CCl)c1cccs1 (centres unmarked) [PCM-0102180]	0.24	0.16	0.55	0	78.5%	93.5%	75.1%
Cc1c(C#N)c(NC(=O)CCl)n(-c2ccccc2)c1C [PCM-0102261]	0	0.3	0.09	0	75.1%	42.5%	7.8%
CCNC(=O)NC(=O)CCl [PCM-0102654]	0	0	0	0	92.6%	90.8%	82.2%
CCc1cc(C(=O)NNC(=O)CCl)sc1C [PCM-0102300]	0	0.11	0.83	0	74.3%	45.9%	75.8%
CC(C)(C)NC(=O)NC(=O)CCl [PCM-0102540]	0	0	0	0	140%	111%	113%
CCN1CCC(NC(=O)CCl)CC1.Cl [PCM-0102103]	0	0	0	0	84.1%	96%	66.8%
O=C(CCl)Nc1cc2[nH]c(=O)[nH]c2cc1Br [PCM-0102388]	0	0	0.56	0	38.6%	11.4%	1.2%
O=C(CCl)NCc1ccc(F)cc1 [PCM-0102192]	0	0	0.31	0	76.1%	86.9%	77.8%

More lines, main results first:

BSA [2]	NUDT7 [3]	OTUB2 [4]	PCAF [5]	SMILES	viability at 48 h, 10 µM [1]	viability at 48 h, 10 µM [6]	viability at 48 h, 10 µM [7]
0	0	0	0	C=CC(=O)N1C(C)CNCC1C.O=C(O)C(F)(F)F (centres unmarked) [PCM-0102447]	109%	104%	105%
0	0.09	0.12	0	O=C(CCl)N1CCCc2cc([N+](=O)[O-])ccc21 [PCM-0102188]	32.3%	19.6%	46.6%
0	0	0	0	C=CC(=O)N1CCCN(C(=O)Oc2ccccc2)CC1 [PCM-0102451]	105%	96.2%	93.9%
0	0	0	0	O=C(CCl)Nc1cccnc1N1CCCC1 [PCM-0102852]	100%	106%	115%
0	0	0	0	C=CC(=O)NCC1CCN(C)c2ccccc21 (centres unmarked) [PCM-0102644]	98.5%	106%	73%
0	0.46	0.08	0	N#Cc1c2c(n(-c3ccccc3)c1NC(=O)CCl)CCCC2 [PCM-0102107]	53.9%	18%	7.6%
0	0	0.18	0	C=CC(=O)NCc1nnc(C(C)(C)C)s1 [PCM-0102727]	108%	105%	100%
0	0	0	0	C=CC(=O)NC1CCC(N2CCCS2(=O)=O)CC1 (centres unmarked) [PCM-0102568]	93.8%	107%	78%
0	0	0	0	C=CC(=O)NC1(c2nnc[nH]2)CCC1 [PCM-0102722]	96.7%	102%	105%
0	0	0	0	Cc1nc(CN2CCN(C(=O)CCl)CC2)cs1 [PCM-0102630]	79.3%	92%	67.4%
0	0	0	0	C=CC(=O)N1CCCC(S(=O)(=O)N2CCOCC2)C1 (centres unmarked) [PCM-0102849]	97.2%	107%	97.9%
0	0	0	0	C=CC(=O)N1CCCC(NS(C)(=O)=O)C1 (centres unmarked) [PCM-0102522]	112%	106%	106%
0	0	0.24	0	CC1CCCCC1NC(=O)NC(=O)CCl (centres unmarked) [PCM-0102292]	69%	52.8%	48.6%
0	0	0.34	0	O=C(CCl)NCC1CCCc2ccccc21 (centres unmarked) [PCM-0102794]	66.7%	67.3%	53.5%
0	0.06	0	0	C=CC(=O)Nc1cc(F)cc(F)c1 [PCM-0103039]	93.3%	86.7%	67.1%
0	0	0	0	COC(=O)C1(NC(=O)CCl)CCC(C)CC1 (centres unmarked) [PCM-0102827]	96.8%	102%	93.6%
